Assay results from patent US20020107197A1, “Ligands for G protein coupled receptors and methods of using them” (priority 2000, published 2002).
Bridges are numbered along the chain shown (N, C = ends). Where no end group is shown, it is not given here.

Key:
GPR4 [1] = molecular target: T1, GPR4 (Homo sapiens, UniProt P46093); assay: Radioligand binding to homogenates of GPR4-transfected CHO cells; conditions: cold competitors, GPR4-transfected CHO cell homogenates
T1 construct: were used to generate full length GPR4, which was digested with EcoRI and Xba I and cloned into the pBs3HA vector; expressed in transfected cells
T1 sequence (P46093 whole entry): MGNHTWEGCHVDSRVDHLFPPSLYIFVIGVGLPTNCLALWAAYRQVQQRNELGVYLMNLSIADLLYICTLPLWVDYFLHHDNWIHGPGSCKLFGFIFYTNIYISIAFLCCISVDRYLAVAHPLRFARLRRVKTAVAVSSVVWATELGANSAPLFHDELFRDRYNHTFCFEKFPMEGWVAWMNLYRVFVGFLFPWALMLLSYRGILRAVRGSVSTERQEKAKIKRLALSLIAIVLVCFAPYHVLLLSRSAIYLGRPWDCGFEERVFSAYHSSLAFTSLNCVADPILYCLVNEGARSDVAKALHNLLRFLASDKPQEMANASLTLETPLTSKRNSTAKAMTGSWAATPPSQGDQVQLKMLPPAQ
Description: (§1) To characterize the binding of SPC and LPC to GPR4 and TDAG8, we conducted radioligand binding assays. CHO cells were chosen for GPR4 binding assays, since HEK293 cells express relatively high levels of endogenous GPR4. CHO cells stably transfected with empty vector or GPR4 were serum starved for 20 h, then collected after exposure to 2 mM EDTA in PBS. The pelleted cells were stored at −80° C. until use. Binding assays were performed essentially as described previously (Xu et al. (2000) Nat Cell Biol 2, 261-267), except binding was performed at 4° C. Briefly, frozen cells (10^6 cells/ml) were homogenized in a binding buffer. Assays were performed in 96-well plates in triplicate with 100 μl cell homogenate (equivalent to 10^5 cells/well). Different amounts of [^3H]SPC or [^3H]16:0-LPC were added to the cell homogenates in 50 μl of binding buffer, in the presence or absence of cold SPC or 16:0-LPC, or other competitors. The plates were incubated at 4° C. for 120 min, unless otherwise indicated. Cell-bound [^3H]SPC or [^3H]LPC was collected onto a filter (Printed Filtermat A, Wallac, Gaithersburg, Md.) using an automated cell harvester (HARVESTER 96, Tomtec, Orange, Conn.). Specific binding was calculated by subtraction of nonspecific binding (binding detected in the presence of 100-fold excess unlabeled SPC or 16:0-LPC) from the total binding.
Cell homogenates were used for binding assays. Binding was conducted at 4° C. for 120 min or as indicated. [^3H]SPC and [^3H]16:0-LPC specifically bound to cell homogenates from GPR4-transfected CHO cells in a time-dependent manner and reached equilibrium after 60 min incubation at 4° C. […] The maximum binding capacities for SPC and 16:0-LPC were 996 fmole/10^5 cells for SPC and 1,528 fmole/10^5 cells for 16:0-LPC. […] Binding assays using [^3H]18:0-LPC gave similar results. We also tested the four glycosphingolipids, Psy, Glu-Sph, Gal-Cer, and Lac-Cer, for their ability to compete for the binding of [^3H]SPC and [^3H]16:0-LPC to GPR4.

GPR4 [2] = molecular target: T1, GPR4; assay: SRE luciferase reporter in GPR4-transfected HEK293 cells; assay type: cell-based; conditions: GPR4 cotransfection
Description: (§2) The serum-response element (SRE) reporter system is a sensitive assay for receptors of lipid factors (An et al. (1998) J Biol Chem 273, 7906-7910; An et al. (1999) Mol Pharmacol 55, 787-794). The SRE reporter system used herein (pSRE-Luc) was a gift from Dr. Songzhu An (UCSF), or may be purchased from Stratagene (La Jolla, Calif.). Both systems give identical results. HEK293 and HEK293GPR4 cells were cultured in RPMI1640 with 10% FBS in 10 cm dishes to ˜85% confluence. To the cells in each dish, pSRE-Luc (10 μg) was transfected in the presence of 60 μl LipofectAMINE reagent. Cells were seeded in 96-well plates 16 h after transfection, incubated for another 24 h in RPMI1640 with 10% FBS, and starved in serum-free medium for 16 h. SPC (dissolved in PBS to 10 mM) and other lipids (LPCs were dissolved in 70% ethanol. Other lipids were dissolved in PBS, 70-95% ethanol, or 100% MeOH) were diluted in serum free RPMI 1640 and added to the cells, followed by a 10 h incubation. Luciferase activity was measured in Microlite™ 1 plates (DYNEX Technologies, Inc., Virginia) using 60 μl of cell lysate and 20 μl luciferase substrate. PTX (100 ng/ml) was added during the 16 h serum starvation period and pcDNA1-C3 (encoding the C3-exoenzyme, 2 μg) was co-transfected with pSRE-Luc (10 μg). All experiments were performed in quadruplicate and were repeated at least three times. The Student's t test was performed using the GraphPad Instat software (San Diego, Calif.). p<0.05 was considered to be statistically significant.

TDAG8 [3] = molecular target: T2, TDAG8 (Homo sapiens, UniProt Q8IYL9); assay: SRE luciferase reporter in TDAG8-transfected HEK293 cells; assay type: cell-based; conditions: TDAG8 cotransfection
T2 construct: expressed in transfected cells
T2 sequence (Q8IYL9 whole entry): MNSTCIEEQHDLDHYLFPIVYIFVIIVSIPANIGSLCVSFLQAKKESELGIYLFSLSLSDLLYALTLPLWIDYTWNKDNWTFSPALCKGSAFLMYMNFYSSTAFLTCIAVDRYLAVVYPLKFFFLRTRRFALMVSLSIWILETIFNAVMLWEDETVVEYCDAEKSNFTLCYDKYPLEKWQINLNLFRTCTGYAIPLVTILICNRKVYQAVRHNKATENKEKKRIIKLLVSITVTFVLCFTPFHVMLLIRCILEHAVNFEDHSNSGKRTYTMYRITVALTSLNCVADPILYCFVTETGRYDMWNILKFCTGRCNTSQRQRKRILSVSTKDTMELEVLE

[4] = test system: vector-transfected HEK293 cells; assay: SRE luciferase reporter in vector-transfected HEK293 cells; assay type: cell-based, human
Description: as §2

GPR4 [5] = molecular target: T1, GPR4; assay: ERK MAP kinase activation (phospho-ERK Western blot) in GPR4-infected Swiss 3T3 cells; assay type: cell-based; conditions: GPR4-ires-GFP vs GFP Swiss 3T3 cells; SPC and LPC 100 nM
Description: MAP kinases are key signaling intermediates of DNA synthesis and cell proliferation. Swiss 3T3 cells were infected with MSCV GPR4-ires-GFP or MSCV ires-GFP, and subsequently cells sorted by FACS for positive expression of GFP as described previously (Kabarowski et al. (2000) Proc Natl Acad Sci USA. 97, 12109-12114). Cells were plated in 6-well plates in DMEM containing 5% FBS, serum-starved overnight, and then treated lipids in DMEM for the indicated times. Cells were lysed on ice in RIPA buffer containing 50 mM Tris-HCl, pH 7.5, 1% Nonidet P-40, 0.5% deoxycholate,0.1% SDS, 150 mM NaCl, 2 mM EGTA, 25 mM sodium fluoride, 1 mM sodium orthovanadate, and 1× protease inhibitors (Sigma P8340). Lysates containing equal amounts of protein were separated on 10% SDS-polyacrylamide gels and transferred onto nitrocellulose membranes. Antibodies against phosphorylated ERK1/2 (Cell Signaling Technologies; Beverly, Mass.) were used to probe the membrane and the ECL system (Amersham) was used for detection. To normalize the amounts of protein loaded in each lane, membranes were stripped and re-probed with antibodies against total ERK (Cell Signaling Technologies). In some experiments, cells were pretreated with 100 ng/ml PTX for 12-16 h prior to SPC and LPC stimulation.

GPR4 [6] = molecular target: T1, GPR4; assay: Cell migration in modified Boyden chamber, GPR4-ires-GFP vs GFP Swiss 3T3 cells; assay type: cell-based; conditions: for chemokinetic assay: cell motility vs controls: lipid 100 nM in both upper and lower chambers, GFP or GFP-GPR4 Swiss 3T3 cells
Description: Chemotaxis was measured in a modified Boyden chamber assay. Briefly, different lipids were added to the lower chambers. GPR4-ires-GFP- and GFP-Swiss 3T3 cells were serum starved for 4 h, trypsinized, and seeded in the upper chambers of Boyden-transwell plates (Corning Inc., Corning, N.Y.). The chambers were incubated for 6 to 8 h. The number of cells that migrated to the lower face of the membrane was counted in 4 random fields. Data are represented as the average ±SD of three independent experiments. For the chemokinetic assay, the same concentrations of lipids were added to both the upper and lower chambers. For Rho inhibition studies, C3-exoenxyme was transiently transfected into Swiss 3T3 cells and cell migration assays were performed 48 hours later.

HEY ovarian cancer cells = assay: DNA synthesis / growth of HEY ovarian cancer cells with SPC and phage preparations; assay type: cell-based, human; conditions: phage mixed with SPC, 30 min incubation
Description: To determine if these selected phage clones were capable of blocking a biological effect of SPC, we mixed phage preparations with SPC. After a 30 min incubation, this mixture was added to HEY cells and its effect on SPC-induced cell proliferation was tested. If a phage clone was carrying a specific sequence which binds to SPC, the addition of the phage to SPC could block the effect of SPC on HEY cells.

GPR4 [7] = molecular target: T1, GPR4; assay: Internalization of GPR4-GFP in HEK293 cells (confocal microscopy); assay type: cell-based; conditions: 1 μM lipid, 37° C., GPR4-GFP HEK293 cells
Description: pGPR4-GFP stably expressing HEK293 cells were cultured in 6 cm tissue culture dishes in RPMI1640 with 10% FBS. After 16-24 h serum starvation, cells were treated with different lipids at 37° C. for 2 h. Cells were washed with cold PBS and fixed with 4% paraformaldehyde in PBS. The subcellular localization of GPR4-GFP protein was visualized under a Leica TV confocal fluorescence microscope with a 63× oil immersion lens (Wetzler, Heidelberg, Germany). The excitation and emission wavelengths were 488 nm and 515-540 nm, respectively.
G protein coupled receptors undergo agonist-dependent desensitization and internalization. When HEK293 cells are transfected with the pEGFP-N1 vector, GFP protein is expressed in the cytosol of the cells. The GPR4-GFP and TDAG8-GFP fusion proteins, on the other hand, was expressed only on the plasma membrane.

TDAG8 [8] = molecular target: T2, TDAG8; assay: Binding of phospholipids to TDAG8
Description: as §1
Using functional and binding assays, we have identified the ligands for TDAG8.

TDAG8 [9] = molecular target: T2, TDAG8; assay: TDAG8 receptor internalization; assay type: cell-based
Excerpt: G protein coupled receptors undergo agonist-dependent desensitization and internalization.

competition for binding of [3H]SPC and [3H]16:0-LPC to GPR4 (GPR4 [1]) | transcriptional activation of SRE (in words) (GPR4 [2]) | transcriptional activation of SRE (in words) (TDAG8 [3]) | cell migration in GPR4- vs. vector-transfected cells (in words) (GPR4 [6]) | chemokinetic assay: cell motility vs controls (GPR4 [6]) | Molecule | transcriptional activation of SRE (in words) [4] | GPR4-dependent ERK activation (in words) (GPR4 [5]) | effect of phage on the growth inhibitory effect of SPC (HEY ovarian cancer cells) | effect of phage on the growth inhibitory effect of SPC (HEY ovarian cancer cells; listed as clone 414) | effect of phage on the growth inhibitory effect of SPC (HEY ovarian cancer cells; listed as phage 414) | internalization of GPR4 (GPR4 [7]) | binding to TDAG8 (TDAG8 [8]) | TDAG8 receptor internalization (TDAG8 [9])
not | not altered | not altered | did not alter cell migration | slightly inhibited | CCCCCCCCCCCCC/C=C/[C@@H](O)[C@@H](N)COP(=O)(O)O [S1P, sphingosine-1-phosphate] | induced significant transcriptional activation of SRE | activation was independent of GPR4 expression |  |  |  |  |  | 
 |  |  |  |  | Cys-His-Thr-Gln-Ala-Asp-Ser-Cys (CHTQADSC; disulfide 1-8) [#414] |  |  | able to inhibit the growth inhibitory effect of SPC on HEY cells | inverted the growth inhibitory effect of SPC | blocked the growth inhibitory effect of SPC on DNA synthesis |  |  | 
not | not altered | not altered | did not alter cell migration | did not show a significant effect | lysophosphatidic acid [LPA] | induced significant transcriptional activation of SRE |  |  |  |  |  |  | 

Molecule | competition for binding of [3H]SPC and [3H]16:0-LPC to GPR4 (GPR4 [1]) | transcriptional activation of SRE (in words) (GPR4 [2]) | transcriptional activation of SRE (in words) (TDAG8 [3]) | cell migration in GPR4- vs. vector-transfected cells (in words) (GPR4 [6]) | chemokinetic assay: cell motility vs controls (GPR4 [6]) | transcriptional activation of SRE (in words) [4] | GPR4-dependent ERK activation (in words) (GPR4 [5]) | effect of phage on the growth inhibitory effect of SPC (HEY ovarian cancer cells) | effect of phage on the growth inhibitory effect of SPC (HEY ovarian cancer cells; listed as clone 414) | effect of phage on the growth inhibitory effect of SPC (HEY ovarian cancer cells; listed as phage 414) | internalization of GPR4 (GPR4 [7]) | binding to TDAG8 (TDAG8 [8]) | TDAG8 receptor internalization (TDAG8 [9])
platelet activating factor [PAF] | not | none of them induced significant transcriptional activation of SRE |  | did not alter cell migration | slightly enhanced |  | activation was independent of GPR4 expression |  |  |  | not | able to bind to TDAG8 | induced TDAG8 receptor internalization
